The assay has as its system TNF-α. In words: TNF-α ELISA with culture of LPS-stimulated PBMC-derived monocytes. The format is cell-based, human. Particulars: monocytes stimulated with LPS 10 ng/ml 2 hrs, starved 1 hr, 4 uM treated for 2 hrs, cell culture medium. How it is done: PBMC (peripheral blood mononuclear cell) was separated from the blood samples (50 ml) collected from healthy subjects using Ficoll-Paque™ PLUS (GE Healthcare Life Sciences, Piscataway, N.J., USA). PBMCs were then enriched in complete RPMI 1640 medium containing 20% of human serum, followed by transferring to 100 mm polystyrene cell culture plate coated with human serum for 30 mins. […]
To investigate the effect of PEP-1 on TNF-α level in terms of protein expression level, ELISA (enzyme linked immunosorbent assay) was performed. […] After culturing, cell soup was collected, and the amount of TNF-α was measured using ELISA kit (R&D, Minneapolis, Minn., USA) as follows.
TNF measurement uses sandwich ELISA method. […] Again, plate was washed, and avidin/biotin was added for measuring the absorbance. TNF-α level of each sample was quantified using the standard graph calculated from the absorbance of standard solution.
PBMC-derived monocytes were stimulated with endotoxin LPS (10 ng/ml) for 2 hrs, starved for 1 hr using OPTI-MEM, and then 4 uM of FITC, FITC-TAT, PEP 1-FITC and FITC-PEP 1 were treated for 2 hrs. After incubation, TNF-α level was measured with cell culture medium using ELISA.
In general terms: In an ELISA, binding on a coated surface is turned into a signal by an enzyme label.

In turn, Fluorescein Isothiocyanate [FITC] displayed a TNF-α level of 6.2 ng/mL.

For the origin of these results see patent US9907837B2, “Composition for preventing or treating cachexia” (GemVax & KAEL Co., Ltd., priority 2012, dated 2018).
